Legend:
green foxtail [1] = experiment: Test Example 5: herbicidal effect by foliage application, plastic box (Table 20, symbol G); type: in vivo, green foxtail (Setaria viridis); conditions: amount of applied herbicide 320 g/ha; foliage application after 14-day growth; evaluated three weeks after application
In short: (§1)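 Plants sown in sterilized diluvial soil and grown 14 days in a greenhouse at 25° C to 30° C, then sprayed on the foliage with the compound's emulsion diluted in water to a predetermined herbicide amount. Injury to weeds and crops scored three weeks after application on a visual rating scale.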

green foxtail [2] = experiment: Test Example 4: herbicidal effect by soil treatment (Table 19, symbol G); type: in vivo, green foxtail (Setaria viridis); conditions: amount of applied herbicide 320 g/ha
In short: (§2)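 Three weeks of greenhouse growth at 25° C. to 30° C. followed a uniform surface spray of water-diluted emulsion at a predetermined herbicide amount. Seeds had been sown beforehand under about 1.5 cm of sterilized diluvial soil. Grading followed criteria set out in an earlier test.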

barnyard grass [3] = experiment: Test Example 4: herbicidal effect by soil treatment (Table 19, symbol H); type: in vivo, barnyard grass (Echinochloa crus-galli); conditions: amount of applied herbicide 320 g/ha
In short: as §2

oval-leafed pondweed = experiment: Test Example 1: herbicidal activity, application before weed generation under submerged conditions (Table 16, symbol C); type: in vivo, oval-leafed pondweed (Monochoria vaginalis); conditions: amount of applied herbicide 320 g/ha
In short: (§3)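 Submerged Wagner pots (alluvial soil, 4 cm water) sown with weed seeds and planted with 2.5-leaf rice seedlings; emulsifiable concentrate diluted in water applied to water surface on sowing day. Held in greenhouse at 25-30 °C; injury scored 0-5 by herbicidal rate after three weeks.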

barnyard grass [4] = experiment: Test Example 5: herbicidal effect by foliage application, plastic box (Table 20, symbol H); type: in vivo, barnyard grass (Echinochloa crus-galli); conditions: amount of applied herbicide 320 g/ha; foliage application after 14-day growth; evaluated three weeks after application
In short: as §1

windgrass [5] = experiment: Test Example 5: herbicidal effect by foliage application, plastic box (Table 20, symbol L); type: in vivo, windgrass (Apera spica-venti); conditions: amount of applied herbicide 320 g/ha; foliage application after 14-day growth; evaluated three weeks after application
In short: as §1

southern crabgrass [6] = experiment: Test Example 5: herbicidal effect by foliage application, plastic box (Table 20, symbol F); type: in vivo, southern crabgrass (Digitaria ciliaris); conditions: amount of applied herbicide 320 g/ha; foliage application after 14-day growth; evaluated three weeks after application
In short: as §1

chickweed [7] = experiment: Test Example 4: herbicidal effect by soil treatment (Table 19, symbol P); type: in vivo, common chickweed (Stellaria media); conditions: amount of applied herbicide 320 g/ha
In short: as §2

redroot pigweed [8] = experiment: Test Example 4: herbicidal effect by soil treatment (Table 19, symbol N); type: in vivo, redroot pigweed (Amaranthus retroflexus); conditions: amount of applied herbicide 320 g/ha
In short: as §2

Japanese bulrush = experiment: Test Example 1: herbicidal activity, application before weed generation under submerged conditions (Table 16, symbol B); type: in vivo, Japanese bulrush (Schoenoplectus juncoides); conditions: amount of applied herbicide 320 g/ha
In short: as §3

southern crabgrass [9] = experiment: Test Example 4: herbicidal effect by soil treatment (Table 19, symbol F); type: in vivo, southern crabgrass (Digitaria ciliaris); conditions: amount of applied herbicide 320 g/ha
In short: as §2

velvetleaf [10] = experiment: Test Example 5: herbicidal effect by foliage application, plastic box (Table 20, symbol M); type: in vivo, velvetleaf (Abutilon theophrasti); conditions: amount of applied herbicide 320 g/ha; foliage application after 14-day growth; evaluated three weeks after application
In short: as §1

rice flat sedge = experiment: Test Example 3: herbicidal effect by foliage application, Wagner pot (Table 18, symbol E); type: in vivo, rice flat sedge (Cyperus iria); conditions: 320 g/ha
In short: (§4)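 Plants were sown in alluvial soil held under 0.1–0.5 cm standing water and grown 14 days in a greenhouse at 25–30 °C. An emulsifiable formulation, water-diluted to the set dose, was then sprayed onto the foliage, and effects were scored three weeks later using previously defined criteria.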

chickweed [11] = experiment: Test Example 5: herbicidal effect by foliage application, plastic box (Table 20, symbol P); type: in vivo, common chickweed (Stellaria media); conditions: amount of applied herbicide 320 g/ha; foliage application after 14-day growth; evaluated three weeks after application
In short: as §1

late watergrass = experiment: Test Example 1: herbicidal activity, application before weed generation under submerged conditions (Table 16, symbol A); type: in vivo, late watergrass (Echinochloa oryzicola); conditions: amount of applied herbicide 320 g/ha
In short: as §3

Italian ryegrass [12] = experiment: Test Example 5: herbicidal effect by foliage application, plastic box (Table 20, symbol K); type: in vivo, Italian ryegrass (Lolium multiflorum); conditions: amount of applied herbicide 320 g/ha; foliage application after 14-day growth; evaluated three weeks after application
In short: as §1

persian speedwell [13] = experiment: Test Example 5: herbicidal effect by foliage application, plastic box (Table 20, symbol R); type: in vivo, Persian speedwell (Veronica persica); conditions: amount of applied herbicide 320 g/ha; foliage application after 14-day growth; evaluated three weeks after application
In short: as §1

wild oat [14] = experiment: Test Example 5: herbicidal effect by foliage application, plastic box (Table 20, symbol I); type: in vivo, wild oat (Avena fatua); conditions: amount of applied herbicide 320 g/ha; foliage application after 14-day growth; evaluated three weeks after application
In short: as §1

blackgrass [15] = experiment: Test Example 5: herbicidal effect by foliage application, plastic box (Table 20, symbol J); type: in vivo, blackgrass (Alopecurus myosuroides); conditions: amount of applied herbicide 320 g/ha; foliage application after 14-day growth; evaluated three weeks after application
In short: as §1

Chinese sprangletop = experiment: Test Example 3: herbicidal effect by foliage application, Wagner pot (Table 18, symbol D); type: in vivo, chinese sprangletop (Leptochloa chinensis); conditions: 320 g/ha
In short: as §4

persian speedwell [16] = experiment: Test Example 4: herbicidal effect by soil treatment (Table 19, symbol R); type: in vivo, Persian speedwell (Veronica persica); conditions: amount of applied herbicide 320 g/ha
In short: as §2

lambsquarters [17] = experiment: Test Example 4: herbicidal effect by soil treatment (Table 19, symbol O); type: in vivo, lambsquarters (Chenopodium album); conditions: amount of applied herbicide 320 g/ha
In short: as §2

Italian ryegrass [18] = experiment: Test Example 4: herbicidal effect by soil treatment (Table 19, symbol K); type: in vivo, Italian ryegrass (Lolium multiflorum); conditions: amount of applied herbicide 320 g/ha
In short: as §2

lambsquarters [19] = experiment: Test Example 5: herbicidal effect by foliage application, plastic box (Table 20, symbol O); type: in vivo, lambsquarters (Chenopodium album); conditions: amount of applied herbicide 320 g/ha; foliage application after 14-day growth; evaluated three weeks after application
In short: as §1

windgrass [20] = experiment: Test Example 4: herbicidal effect by soil treatment (Table 19, symbol L); type: in vivo, windgrass (Apera spica-venti); conditions: amount of applied herbicide 320 g/ha
In short: as §2

barnyard grass [21] = experiment: Test Example 3: herbicidal effect by foliage application, Wagner pot (Table 18, symbol H); type: in vivo, barnyard grass (Echinochloa crus-galli); conditions: 320 g/ha
In short: as §4

redroot pigweed [22] = experiment: Test Example 5: herbicidal effect by foliage application, plastic box (Table 20, symbol N); type: in vivo, redroot pigweed (Amaranthus retroflexus); conditions: amount of applied herbicide 320 g/ha; foliage application after 14-day growth; evaluated three weeks after application
In short: as §1

false cleavers = experiment: Test Example 5: herbicidal effect by foliage application, plastic box (Table 20, symbol Q); type: in vivo, false cleavers (Galium spurium); conditions: amount of applied herbicide 320 g/ha; foliage application after 14-day growth; evaluated three weeks after application
In short: as §1

velvetleaf [23] = experiment: Test Example 4: herbicidal effect by soil treatment (Table 19, symbol M); type: in vivo, velvetleaf (Abutilon theophrasti); conditions: amount of applied herbicide 320 g/ha
In short: as §2

blackgrass [24] = experiment: Test Example 4: herbicidal effect by soil treatment (Table 19, symbol J); type: in vivo, blackgrass (Alopecurus myosuroides); conditions: amount of applied herbicide 320 g/ha
In short: as §2

wild oat [25] = experiment: Test Example 4: herbicidal effect by soil treatment (Table 19, symbol I); type: in vivo, wild oat (Avena fatua); conditions: amount of applied herbicide 320 g/ha
In short: as §2

Cc1nn(C)c(=O)c(-c2c(-c3ccc(F)cc3)sc3cc(F)c(F)cc23)c1O [5-001]
Herbicidal effect by foliage application, G: green foxtail (green foxtail [1]): 5 (Herbicidal rate of 90% or more (almost completely withered))
G: green foxtail, herbicidal effect grade (green foxtail [2]): 5 (Herbicidal rate of 90% or more (almost completely withered))
H: barnyard grass, herbicidal effect grade (barnyard grass [3]): 0 (Herbicidal rate of 5% or less (almost no effect))
Herbicidal effect, C: oval-leafed pondweed (oval-leafed pondweed): 0 (Herbicidal rate of 5% or less (almost no effect))
Herbicidal effect by foliage application, H: barnyard grass (barnyard grass [4]): 4 (Herbicidal rate of 70% or more and less than 90%)
Herbicidal effect by foliage application, L: windgrass (windgrass [5]): 5 (Herbicidal rate of 90% or more (almost completely withered))
Herbicidal effect by foliage application, F: southern crabgrass (southern crabgrass [6]): 5 (Herbicidal rate of 90% or more (almost completely withered))
P: chickweed, herbicidal effect grade (chickweed [7]): 4 (Herbicidal rate of 70% or more and less than 90%)
N: redroot pigweed, herbicidal effect grade (redroot pigweed [8]): 5 (Herbicidal rate of 90% or more (almost completely withered))
Herbicidal effect, B: Japanese bulrush (Japanese bulrush): 1 (Herbicidal rate of 5% or more and less than 20%)
F: southern crabgrass, herbicidal effect grade (southern crabgrass [9]): 5 (Herbicidal rate of 90% or more (almost completely withered))
Herbicidal effect by foliage application, M: velvetleaf (velvetleaf [10]): 5 (Herbicidal rate of 90% or more (almost completely withered))
herbicidal effect on rice flat sedge (E) (rice flat sedge): 5 (Herbicidal rate of 90% or more (almost completely withered))
Herbicidal effect by foliage application, P: chickweed (chickweed [11]): 5 (Herbicidal rate of 90% or more (almost completely withered))
Herbicidal effect, A: late watergrass (late watergrass): 3 (Herbicidal rate of 40% or more and less than 70%)
Herbicidal effect by foliage application, K: Italian ryegrass (Italian ryegrass [12]): 5 (Herbicidal rate of 90% or more (almost completely withered))
Herbicidal effect by foliage application, R: persian speedwell (persian speedwell [13]): 5 (Herbicidal rate of 90% or more (almost completely withered))
Herbicidal effect by foliage application, I: wild oat (wild oat [14]): 4 (Herbicidal rate of 70% or more and less than 90%)
Herbicidal effect by foliage application, J: blackgrass (blackgrass [15]): 4 (Herbicidal rate of 70% or more and less than 90%)
herbicidal effect on Chinese sprangletop (D) (Chinese sprangletop): 3 (Herbicidal rate of 40% or more and less than 70%)
R: persian speedwell, herbicidal effect grade (persian speedwell [16]): 5 (Herbicidal rate of 90% or more (almost completely withered))
O: lambsquarters, herbicidal effect grade (lambsquarters [17]): 5 (Herbicidal rate of 90% or more (almost completely withered))
K: Italian ryegrass, herbicidal effect grade (Italian ryegrass [18]): 5 (Herbicidal rate of 90% or more (almost completely withered))
Herbicidal effect by foliage application, O: lambsquarters (lambsquarters [19]): 5 (Herbicidal rate of 90% or more (almost completely withered))
L: windgrass, herbicidal effect grade (windgrass [20]): 5 (Herbicidal rate of 90% or more (almost completely withered))
herbicidal effect on barnyard grass (H) (barnyard grass [21]): 4 (Herbicidal rate of 70% or more and less than 90%)
Herbicidal effect by foliage application, N: redroot pigweed (redroot pigweed [22]): 5 (Herbicidal rate of 90% or more (almost completely withered))
Herbicidal effect by foliage application, Q: false cleavers (false cleavers): 5 (Herbicidal rate of 90% or more (almost completely withered))
M: velvetleaf, herbicidal effect grade (velvetleaf [23]): 4 (Herbicidal rate of 70% or more and less than 90%)
J: blackgrass, herbicidal effect grade (blackgrass [24]): 4 (Herbicidal rate of 70% or more and less than 90%)
I: wild oat, herbicidal effect grade (wild oat [25]): 3 (Herbicidal rate of 40% or more and less than 70%)

— patent US20230085307A1, “PYRIDAZINONE COMPOUND AND HERBICIDE” (NISSAN CHEMICAL CORPORATION, priority 2019, published 2023)
